# Experimental data published in patent publication US20260124311A1, “POLYMER-DRUG CONJUGATES FOR STING PATHWAY ACTIVATION” (Vanderbilt University, priority 2022, published 2026).
# Like-named read-outs stand apart in the source and are kept apart here.
# Key:
# STING [1] = target: T1, STING (Homo sapiens, UniProt Q86WV6, G230A/H232R/R293Q/R71H); experiment: THP1-Dual reporter assay (IRF-luciferase, Quanti-Luc) for activation of STING; type: cell-based; settings: for STING activation / interferon production in THP-1 Dual reporter cells, in words: qualitative comparison of dose-response curves
# T1 construct: host or cells: THP1-Dual cells
# Description: Activation of STING. […] Cells were subjected to 10 μg/mL Blasticidin and 100 μg/mL Zeocin for continual selection after every cell passage. […] Reporter cells were seeded at 25,000 cells/well in 100 μL media and treatments were administered in 100 μL of medium.
# [2] = target: T2, recombinant human STING (hSTING; STING isoform 1) (Homo sapiens, UniProt Q86WV6); experiment: Isothermal calorimetry (ITC) binding to recombinant human STING
# T2 construct: made in house; host or cells: Escherichia coli (New England Biolabs, T7 Shuffle Express line)
# Description: hSTING Binding Studies. […] Buffer exchange was performed prior to ITC (pH 7.5: PBST, 150 mM NaCl, 3 mM EDTA, 0.05% Tween 20), using Amicon Ultra 4 mL centrifugal filters (Millipore, Etobicoke, Canada). ITC experiments were performed on a TA Instruments Affinity ITC instrument. 24 total injections were performed using the following instrument settings: cell temperature 25° C., reference power 10 μCal/second, initial delay 240 seconds, stirring speed 75 rpm, feedback mode/gain high, and injection volume 2 μL for 10 seconds spaced at 120 second intervals with a filter period of 10 seconds. hSTING was set in the cell at a concentration of 10 μM and a volume of 350 μL. […] Data were analyzed using TA Instruments NanoAnalyze Software.
# STING [3] = target: T3, STING (Mus musculus, UniProt Q3TBT3); experiment: Interferon-β sandwich ELISA on isolated primary murine splenocytes; type: cell-based
# T3 construct: from tissue; host or cells: primary splenocytes from spleens of female C57BL/6 mice
# T3 sequence (Q3TBT3 1-378): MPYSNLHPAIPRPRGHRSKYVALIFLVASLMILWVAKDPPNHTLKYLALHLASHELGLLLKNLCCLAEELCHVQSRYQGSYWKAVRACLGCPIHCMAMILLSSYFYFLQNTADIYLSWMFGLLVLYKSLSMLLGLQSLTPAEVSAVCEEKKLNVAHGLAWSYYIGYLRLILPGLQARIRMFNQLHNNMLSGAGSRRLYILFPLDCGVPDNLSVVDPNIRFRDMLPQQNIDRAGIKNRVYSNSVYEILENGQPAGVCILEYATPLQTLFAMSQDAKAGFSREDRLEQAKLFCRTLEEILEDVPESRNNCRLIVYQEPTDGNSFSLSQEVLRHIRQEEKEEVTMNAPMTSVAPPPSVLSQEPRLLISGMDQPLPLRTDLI
# Description: The activity in primary murine splenocytes, which comprises a mixture of different immune cell populations, using ELISA was used to quantify secreted interferon-β (IFN-β), a signature cytokine of STING pathway activity.
# Secretion of Interferon-β (IFN-β) ELISA. […] Cells were centrifuged and resuspended in fresh media at a concentration of 3 million cells per mL. Cells were seeded in a 96-well round bottom plate at 100 μL per well and treatments were administered in 100 μL of medium.
# [4] = target: T4, Recombinant Mouse Cathepsin B (Mus musculus, UniProt P10605); experiment: Cathepsin-B release / enzyme cleavability assay with MALDI-MS; type: biochemical; settings: 50 μM substrate, 0.2 μM cathepsin B
# T4 construct: purchased RND Systems
# Description: Enzyme Cleavability Studies. Recombinant Mouse Cathepsin B (RND Systems) was prepared at 50 μM in MES buffer (pH 5.0) upon opening and kept in −80° C. conditions when not in use. To activate the enzyme, Cathepsin B was diluted to 0.2 μM in MES buffer (pH 5.0) containing 1 mM EDTA and 2 mM DTT and placed at 37° C. for 15 minutes. After activation, Cathepsin B was combined with 50 μM of substrate at 37° C. for 37 hours at a total volume of 100 μL. Activity was determined by observing molecular weight shifts in the substrate using matrix assisted laser desorption and ionization mass spectrometry (MALDI-MS). 4 μL of Matrix (20 mg mL^−1 THAP and 20 mg mL^−1 CHCA in dry acetone) was combined with 1 μL of sample from the Cathepsin B activity assay and spotted on a stainless steel MALDI-MS plate (Bruker). After evaporation of matrix, three technical replicates were collected for each spot using FlexControl software (Bruker Daltonics) on a Bruker AutoFlex MALDI-TOF. The laser pulse rate was 1000 Hz and spectra were obtained with a mass window of 600-5000 m/z at high resolution (4.00 GS/s). FlexAnalysis software (Bruker Daltonics) was used to perform unbiased smoothing and obtain baseline spectra for all samples. Spectra were exported to Microsoft Excel and spectra were plotted using MATLAB.
# THP-1 Dual cells = experiment: Cellular uptake by flow cytometry at 37° C. and 4° C.; type: cell-based, human; settings: FIG. 22A-B
# From the text: To confirm the dependence of cellular uptake on endocytosis, a RAFT polymerization was used to synthesize a fluorescent version of 50 kDa DMA-diABZI (36) in which a small amount of azide propyl methacrylamide (2%) was co-polymerized to allow for covalent conjugation to DBCO-Sulfo-Cy5 dye, yielding compound (37), which had 2 Sulfo-Cy5 molecules per chain. […] Therefore, DMA-diABZI appears to cells via endocytosis where it can activate STING signaling within ˜2 hr.
# [5] = test system: E0771 murine breast tumors; experiment: Therapeutic efficacy in E0771 murine breast tumor model; settings: approximately 0.009 μmol drug/mouse every 4 days, 3 treatments
# [6] = E0771 tumor bearing mice, approximately 0.012 μmol diABZI/mouse, organs after 24 hours
# B16.F10 melanoma = settings: intravenous, every 3 days, 3 treatments, 0.035 umol diABZI/mouse
# Description: Tumor volume was measured until day 18 when the first tumor reached 1500 mm^3 (FIG. 9E).
# IRF and NF-kb pathway = experiment: THP-1 Dual reporter assay of IRF and NF-kb pathway activation; type: cell-based, human; settings: FIG. 19A-B
# Description: Activation of STING. THP1-Dual cells (InvivoGen) were cultured in Roswell Park Memorial Institute (RPMI) 1640 Medium (Gibco) supplemented with 2 mM L-glutamine, 25 mM HEPES, 10% heat-inactivated fetal bovine serum (HI-FBS; Gibco), 100 U mL^−1, penicillin/100 μg mL^−1, streptomycin (Gibco), and 100 μg/mL Normocin. Cells were subjected to 10 μg/mL Blasticidin and 100 μg/mL Zeocin for continual selection after every cell passage. 96-well plates (REF 655180; Greiner Bio-One) were used for screening agonist activity. Reporter cells were seeded at 25,000 cells/well in 100 μL media and treatments were administered in 100 μL of medium. Results were collected 24 hours after treatment using a Quanti-Luc™ (InvivoGen) assay on cell supernatants following manufacturer's instructions. Luminescence was quantified using a plate reader (Synergy H1 Multi-Mode Microplate Reader; Biotek) after supernatants were transferred to opaque-bottom 96-well plates (REF 655073; Greiner Bio-One).
# [7] = test system: STING knockout THP1 Dual cell line; experiment: STING knockout THP1 Dual cell line reporter assay; type: cell-based, human; settings: FIG. 19C-D
# [8] = FIG. 3B, 24 hours, read-out: EC50, IFN-β production in primary murine splenocytes (ELISA)
# [9] = FIG. 3A, 24 hours, read-out: estimated EC50, IRF signaling in THP1-Dual reporter cells
# [10] = Table 2, FIG. 18A, IRF signaling in THP-1 Dual reporter cells, read-out: EC50 value
# [11] = FIG. 5, IRF signaling at 24 hours, read-out: EC50, STING activation in THP-1 Dual reporter cell lines
# T1 sequence (Q86WV6 whole entry R71H/G230A/H232R/R293Q): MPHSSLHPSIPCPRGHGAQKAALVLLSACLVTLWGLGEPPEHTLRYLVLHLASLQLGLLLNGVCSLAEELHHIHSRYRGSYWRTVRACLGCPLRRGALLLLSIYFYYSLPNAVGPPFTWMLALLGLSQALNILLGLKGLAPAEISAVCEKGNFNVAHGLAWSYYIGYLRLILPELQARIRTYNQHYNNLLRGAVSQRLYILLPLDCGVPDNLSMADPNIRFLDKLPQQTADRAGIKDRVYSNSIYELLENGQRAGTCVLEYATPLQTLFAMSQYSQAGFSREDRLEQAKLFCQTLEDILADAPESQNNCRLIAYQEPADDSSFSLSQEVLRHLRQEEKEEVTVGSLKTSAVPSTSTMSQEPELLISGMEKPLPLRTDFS
# T2 sequence (Q86WV6 whole entry H232R, canonical isoform): as the sequence (Q86WV6 whole entry R71H/G230A/H232R/R293Q) above, with H71R, A230G, Q293R counted along it
# T4 sequence (P10605 80-333 limits assumed): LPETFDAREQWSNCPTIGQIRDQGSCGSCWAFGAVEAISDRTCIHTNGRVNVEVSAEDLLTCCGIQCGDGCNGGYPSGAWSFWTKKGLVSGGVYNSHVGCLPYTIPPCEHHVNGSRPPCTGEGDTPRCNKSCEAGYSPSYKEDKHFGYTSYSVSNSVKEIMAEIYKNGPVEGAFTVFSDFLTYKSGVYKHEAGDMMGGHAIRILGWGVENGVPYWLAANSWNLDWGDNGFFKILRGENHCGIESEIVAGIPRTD
compound,measurement,setting,value
diABZI-V/C-5k PEG [diABZI-V/C-5k PEG (20)],"STING activation / interferon production in THP-1 Dual reporter cells, in words",STING [1],active
diABZI-V/C-2k PEG [diABZI-V/C-2k PEG (19)],"STING activation / interferon production in THP-1 Dual reporter cells, in words",STING [1],active
"C=C(C)C(=O)OCCSSCCC(=O)NCCCOc1cc(C(N)=O)cc2nc(NC(=O)c3cc(C)nn3CC)n(C/C=C/Cn3c(NC(=O)c4cc(C)nn4CC)nc4cc(C(N)=O)cc(OC)c43)c12 [diABZI-disulfide-methacrylate (15), diABZI-disulfide-methacrylate]","STING activation / interferon production in THP-1 Dual reporter cells, in words",STING [1],nearly identical STING activation
"CCn1nc(C)cc1C(=O)Nc1nc2cc(C(N)=O)cc(OC)c2n1C/C=C/Cn1c(NC(=O)c2cc(C)nn2CC)nc2cc(C(N)=O)cc(OCCCNC(=O)OCc3ccc(NC(=O)[C@H](CCCNC(N)=O)NC(=O)[C@@H](NC(=O)CCCCCN4C(=O)C=CC4=O)C(C)C)cc3)c21 [diABZI-V/C-Mal (3), diABZI-V/C-Mal]",Kd,[2],207 ± 150 nM
same,EC50,STING [3]; [8],~3.38 nM
same,EC50,STING [1]; [9],314 nM
same,cathepsin B cleavage (molecular weight shift by MALDI-MS),[4],shift in molecular weight from 1400.8 Da to 801.83 Da
"CCn1nc(C)cc1C(=O)Nc1nc2cc(C(N)=O)cc(OC)c2n1C/C=C/Cn1c(NC(=O)c2cc(C)nn2CC)nc2cc(C(N)=O)cc(OCCCNC(=O)CCCCC(=O)N3Cc4ccccc4C#Cc4ccccc43)c21 [diABZI-DBCO (8), diABZI-DBCO]","STING activation / interferon production in THP-1 Dual reporter cells, in words",STING [1],elicit STING activation
"C=C(C)C(=O)OCCCCCC(=O)NCCCOc1cc(C(N)=O)cc2nc(NC(=O)c3cc(C)nn3CC)n(C/C=C/Cn3c(NC(=O)c4cc(C)nn4CC)nc4cc(C(N)=O)cc(OC)c43)c12 [diABZI-methacrylate (14), diABZI-methacrylate]","STING activation / interferon production in THP-1 Dual reporter cells, in words",STING [1],nearly identical STING activation
diABZI-DMA-co-AzPMA-Sulfo-Cy5 [sCy5-labeled DMA-diABZI (37)],cellular uptake at 4° C. versus 37° C.,THP-1 Dual cells,nearly completely abrogated
100 kDa-poly(dimethylacrylamide-co-azidethylmethacrylate)-graft-diamidobenzimidazole) [100 kDa DMA-g-V/C-diABZI (29)],survival,[5],longer than the control and non-polymer conjugated compound
same,treated mice with complete tumor regression,[5],~37.5%
same,organ accumulation (biodistribution),[6],accumulation mainly in the liver and tumor
diABZI-5k PEG [diABZI-5k PEG (17)],"STING activation / interferon production in THP-1 Dual reporter cells, in words",STING [1],slightly higher activity
diABZI-V/C-20k PEG [diABZI-V/C-20k PEG (21)],tumor growth inhibition,B16.F10 melanoma,inhibited tumor growth to a comparable degree
same,"STING activation / interferon production in THP-1 Dual reporter cells, in words",STING [1],active
"CCn1nc(C)cc1C(=O)Nc1nc2cc(C(N)=O)cc(OC)c2n1C/C=C/Cn1c(NC(=O)c2cc(C)nn2CC)nc2cc(C(N)=O)cc(OCCCNC(=O)CCCCCN3C(=O)C=CC3=O)c21 [diABZI-Mal (2), diABZI-Mal]",Kd,[2],890 ± 547 nM
same,EC50,STING [3]; [8],~3.62 nM
same,EC50,STING [1]; [9],20.5 nM
same,cathepsin B cleavage (molecular weight shift by MALDI-MS),[4],no change in molecular weight
diABZI-20k PEG [diABZI-20k PEG (18)],tumor growth inhibition,B16.F10 melanoma,inhibited tumor growth to a comparable degree
same,"STING activation / interferon production in THP-1 Dual reporter cells, in words",STING [1],slightly higher activity
"CCn1nc(C)cc1C(=O)Nc1nc2cc(C(N)=O)cc(OC)c2n1C/C=C/Cn1c(NC(=O)c2cc(C)nn2CC)nc2cc(C(N)=O)cc(OCCCN)c21 [diABZI-amine (1), (E)-7-(3-aminopropoxy)-1-(4-(5-carbamoyl-2-(1-ethyl-3-methyl-1H-pyrazole-5-carboxamido)-7-methoxy-1H-benzo[d]imidazol-1-yl)but-2-en-1-yl)-2-(1-ethyl-3-methyl-1H-pyrazole-5-carboxamido)-1H-benzo[d]imidazole-5-carboxamide]",Kd,[2],70 ± 62 nM
same,EC50,STING [3],~2.24 nM
same,tumor growth inhibition,B16.F10 melanoma,inhibited tumor growth to a comparable degree
same,EC50,STING [1]; [9],60.9 nM
same,EC50,STING [1]; [10],78.6 nM
diABZI(CTA)-SS-poly-DMA (50k) [50 kDa diABZI-SS-DMA (35)],"STING activation / interferon production in THP-1 Dual reporter cells, in words",STING [1],activated STING in a similar range as the stably linked constructs
25 kDa-poly(dimethylacrylamide-co-azidethylmethacrylate)-graft-diamidobenzimidazole) [25 kDa DMA-g-V/C-diABZI (28)],survival,[5],longer than the control and non-polymer conjugated compound
same,treated mice with complete tumor regression,[5],approximately 20%
same,organ accumulation (biodistribution),[6],"accumulation in the kidney, tumor, and liver"
"C#CCOC(=O)Nc1ccc(COC(=O)NCCCOc2cc(C(N)=O)cc3nc(NC(=O)c4cc(C)nn4CC)n(C/C=C/Cn4c(NC(=O)c5cc(C)nn5CC)nc5cc(C(N)=O)cc(OC)c54)c23)cc1 [Alkyne-PAB-diABZI (4), Alkyne-PAB-diABZI]","STING activation / interferon production in THP-1 Dual reporter cells, in words",STING [1],decrease in STING activation
"CCSC(=S)SC(C)(C#N)CCC(=O)NCCCOc1cc(C(N)=O)cc2nc(NC(=O)c3cc(C)nn3CC)n(C/C=C/Cn3c(NC(=O)c4cc(C)nn4CC)nc4cc(C(N)=O)cc(OC)c43)c12 (centres unmarked) [diABZI-ECT (10), diABZI-ECT]",IRF and NF-kb pathway activation,IRF and NF-kb pathway,both signaling pathways are engaged
same,EC50,STING [1]; [11],3.06 nM
same,EC50,STING [1]; [10],7.21 nM
same,"STING activation / interferon production in THP-1 Dual reporter cells, in words",STING [1],significantly more potent than diABZI-amine (1)
same,"STING activation / interferon production in THP-1 Dual reporter cells, in words",STING [1]; listed as 10,nearly identical STING activation
same,IRF and NF-κβ responses in STING knockout cells,[7],lack of activity
"CCSC(=S)SC(C)(C#N)CCC(=O)NCCSSCCC(=O)NCCCOc1cc(C(N)=O)cc2nc(NC(=O)c3cc(C)nn3CC)n(C/C=C/Cn3c(NC(=O)c4cc(C)nn4CC)nc4cc(C(N)=O)cc(OC)c43)c12 (centres unmarked) [diABZI-SS-ECT (11), diABZI-SS-ECT]",EC50,STING [1]; [11],4.09 nM
same,"STING activation / interferon production in THP-1 Dual reporter cells, in words",STING [1],significantly more potent than diABZI-amine (1)
"CCn1nc(C)cc1C(=O)Nc1nc2cc(C(N)=O)cc(OC)c2n1C/C=C/Cn1c(NC(=O)c2cc(C)nn2CC)nc2cc(C(N)=O)cc(OCCCNC(=O)OCc3ccc(NC(=O)[C@H](CCCNC(N)=O)NC(=O)[C@@H](NC(=O)CCCCC(=O)N4Cc5ccccc5C#Cc5ccccc54)C(C)C)cc3)c21 [diABZI-V/C-DBCO (9), diABZI-V/C-DBCO]","STING activation / interferon production in THP-1 Dual reporter cells, in words",STING [1],elicit STING activation
